Source: EP2311457A1, “Pharmaceutical compositions for treating infections with drug resistant mycobacteria” (priority 2009, dated 2011)
Values after ≈ are worked out from the molar mass of the structure shown.

Tested on: Mtb 09457/06 XDR
Experiment: Drug susceptibility testing, radiometric MIC determination (BACTEC 460TB)
Conditions: Mycobacterium tuberculosis, read-out: minimal inhibitory concentrations

Compound	MIC
C(=NNc1nncc2ccccc12)c1ccc(OCc2ccccc2)cn1 [PH22-6, 5-benzyloxypyridine-2-aldehyde-1'-phthalazinylhydrazone]	1 µg/mL (≈ 2.81 µM)
Cc1ccc(C=NNc2ccc3ccccc3n2)nc1 [PH22-14, 5-methylpyridine-2-aldehyde-2'-quinolylhydrazone]	0.5 µg/mL (≈ 1.91 µM)
c1ccc(C(=NNc2ccc3ccccc3n2)c2ccccn2)cc1 [PH22-15, 2-benzoylpyridine-2'-quinolylhydrazone]	0.25 µg/mL (≈ 0.771 µM)
Cc1ccc(C=NNc2nncc3ccccc23)nc1 [PH22-16, 5-methyl-pyridine-2-aldehyde-1'-phthalazinylhydrazone]	< 1 µg/mL
c1ccc(C(=NNc2nncc3ccccc23)c2ccccn2)cc1 [PH22-22, 2-benzoylpyridine-1'-phthalazinylhydrazone]	5 µg/mL (≈ 15.4 µM)
Cc1cccc(NN=Cc2ccccn2)n1 [PH22-31, pyridine-2-aldehyde-6'-methyl-2'-pyridylhydrazone]	1 µg/mL (≈ 4.71 µM)
CCc1ccc(C=NNc2cc(OC)ncn2)nc1 [PH22-33, 5-ethylpyridine-2-aldehyde-6'-methoxy-4'-pyrimidylhydrazone]	< 0.125 µg/mL
C(=NNc1ccccn1)c1ccc(OCc2ccccc2)cn1 [PH22-49, 5-benzyloxypyridine-2-aldehyde-2'-pyridylhydrazone]	1 µg/mL (≈ 3.29 µM)
Clc1ccc(NN=Cc2ccc(OCc3ccccc3)cn2)nn1 [PH22-51, 5-benzyloxypyridine-2-aldehyde-6'-chloro-3'-pyridazinylhydrazone]	1 µg/mL (≈ 2.94 µM)
C(=NNc1ncnc2ccccc12)c1ccc(OCc2ccccc2)cn1 [PH22-52, 5-benzyloxypyridine-2-aldehyde-4'-quinazolinylhydrazone]	1 µg/mL (≈ 2.81 µM)
